This is an account of results in patent US20230285557A1, “MULTI-PARALLEL ANALYSIS OF T-CELL THERAPIES” (The Board of Trustees of the Leland Stanford Junior …, priority 2020, published 2023).

In one test the test system is PMEL CD8^+ T cells. The test can be described thus: CyTOF phenotyping of ex vivo expanded PMEL T cells stimulated with or without 2HC. Conditions: 5 mM 2HC during ex vivo expansion, vs untreated cells (effector and exhausted phenotype). It counts as cell-based, murine. An excerpt:
This Example describes experiments performed to apply the CyTOF technology to a comprehensively capture the phenotypic space of T cells. As described below, an in-depth understanding of the phenotype of differentially activated tumor-specific T cells can be achieved by using a CyTOF technique. […] Also used in these experiments was a palladium-based mass tag cell barcoding technique that enabled simultaneous analysis and pooling of 20 samples at a time, which allowed efficient multiplexing and reducing batch effects.
Generally, cells were suspended in supplemented media: complete RPMI 1640 media (with glutamine) with 1× non-essential amino acids, 1 mM sodium pyruvate, 0.4× vitamin solution, 92 µM 2-mercaptoethanol, 10 µM ciprofloxacin, 10% fetal bovine serum (FBS), and 50 IU/ml IL-2. At Day 0, splenocytes were used at a concentration of 2×10^6/ml, 100 µL /well in 96 well plate u-bottom. The cultures were started with 100×10^6 cells per condition, in 50 mL T cell media containing 60 IU/mL IL-2, 10 µg/mL GP100, and 5 mM 2HC (85 mg). At Day 3, the cell culture was fed with 50 µL media containing 120 IU/mL IL-2 and 5 mM 2HC. At Day 4, the cell culture was fed with 80 µL media containing 120 IU/mL IL-2 and 5 mM 2HC. […]
On Day 9, cells were counted and harvested into FACS tubes for CyTOF analysis using a panel of CYTOF biomarkers (see, e.g., FIG. 1 and Table 1). […]

The subject of another test is T memory stem cells. Conditions: previously reported; by altering acetyl-Coenzyme A levels; cited from earlier work.

`O=C([O-])CC(O)(C(=O)[O-])C(O)C(=O)[O-].[K+].[K+].[K+]` (centres unmarked) [2HC, tripotassium 2-hydroxycitrate]: the “shift of T cell phenotype on incubation with inhibitor of acetyl-CoA production” value with PMEL CD8^+ T cells is recorded as “drastically shifted T cells towards a more memory like phenotype”. In the test with T memory stem cells, the “generation of T memory stem cells” value is on record as “increases the generation of T memory stem cells”.
